# Reference: US10765693B2, “Polymorphic compounds and uses thereof” (Astrocyte Pharmaceuticals, Inc., priority 2018, dated 2020)
# Experiments:
# Format in all cases: physicochemical
# [1] = Dynamic Vapour Sorption (DVS) analysis; details: for moisture gain observed during the moisture sorption: adsorption cycle 5 to 95% RH; for crystalline form after the DVS analysis (XRPD before/after): sample exposed up to 95% RH and down to 5% RH
# Experimental: Dynamic Vapour Sorption (DVS) analysis was carried out using a TA Instruments Q5000 Dynamic Vapor Sorption analyzer. The instrument was calibrated with standard weights and a sodium bromide standard for humidity. Approximately 20 mg of sample was loaded into a metal-coated quartz pan for analysis. The sample was analyzed at 25° C. with a maximum equilibration time of one hour in 10% relative humidity (RH) steps from 5 to 95% RH (adsorption cycle) and from 95 to 5% RH (desorption cycle). The movement from one step to the next occurred either after satisfying the equilibrium criterion of 0.01% weight change or, if the equilibrium criterion was not met, after one hour. The percent weight change values were calculated using Microsoft Excel®. The temperature for the DVS analysis can impact the outcome of the results.
# [2] = Stability when milled in the presence of water or stirred (slurried) in water; details: milled with water; stirred in water between room temperature and 60° C.
# Experimental: Milling was performed using a Retsch Mill. About 20 mg of material was placed into a plastic grinding cup followed by 10 μL of water and a stainless-steel ball. The sample was then milled at 100% power for 20 minutes.
# To a plastic grinding cup was added 18.4 mg of Compound A and 10 μL of water. A stainless-steel ball was added. The sample was then milled on a Retsch mill at 100% power for 20 minutes at room temperature.
# (§1) To a 20 mL glass vial was added 200.0 mg of Compound A and 3.0 mL of water. A magnetic stir bar was added and the vial was capped. The vial was placed on a heating/stirring plate and the slurry was stirred magnetically for 7 days at ambient temperature. The vial was centrifuged for 10 minutes and the mother liquor was decanted. A dry air purge was directed into the vial for 10 minutes to dry the solid. The vial was then placed in a room temperature vacuum desiccator for 2 hours.
# as §1, with “plate set at 60° C.” for “plate”, “3 days.” for “7 days at ambient temperature.”
# [3] = Relative stability of Form A and Form B slurried in organic/water solvent systems of differing water activity; details: mixture of the two forms slurried
# Excerpt: If the solvent system has higher than or equal water activity of 0.72, and the two crystalline forms are mixed, the mixture converts to Form A. The solvent systems can be mixture of any organic solvents and organic solvents containing water.
# The solvent systems can be mixture of any organic solvents and organic solvents containing water.
# [4] = DVS, 25° C., desorption cycle 95 to 5% RH
SMILES,"stability under various humidity conditions ([1]; DVS, 5 to 95% RH)","hygroscopicity based on the DVS data ([1]; DVS, 25° C., 5 to 95% RH)","moisture gain observed during the moisture sorption ([1]; DVS, 25° C.)","moisture loss observed during the desorption cycle [1, 4]",crystalline form after the DVS analysis (XRPD before/after) [1],stability when milled in the presence of water or stirred in water [2],water activity of solvent system at which this form is the more stable of Forms A and B [3],"moisture loss during the desorption cycle (in words) [1, 4]"
CSc1nc(N)c2ncn([C@H]3[C@H](O)[C@H](O)[C@]4(CO)C[C@H]34)c2n1 [Form A of compound A],stable under various humidity conditions,moderately hygroscopic,approximately 9.3%,about 2%,remained unchanged,stable,≥ 0.72,–
CSc1nc(N)c2ncn([C@H]3[C@H](O)[C@H](O)[C@]4(CO)C[C@H]34)c2n1 [Form B of compound A],–,moderately hygroscopic,approximately 6.4%,–,remained unchanged,–,less than or equal to 0.63,lost all of the moisture gain
